Like-named read-outs stand apart in the source and are kept apart here.
Key:
[1] = tested on: MHCC97H KSR2 OE (97H cells overexpressing KSR2); assay: Cell IC50 assay (CCK8 cell viability), MHCC97H KSR2 OE; type: cell-based; conditions: Homo sapiens
Procedure: (§1) (1) Cell Preparation: Hepatoma cells (PLC/PRF/5, sourced from the Chinese Academy of Sciences; MHCC97H, sourced from this research institute) in good growth condition are prepared. The cells are trypsinized, diluted, and seeded into 96-well cell culture plates. 1,000-3,000 cells are added per well. The plates are then placed in a cell culture incubator at 37° C. with 5% CO2. Drugs are added after the cells have adhered for 24 h.
(§2) (2) Drug Addition: The drugs are subjected to gradient dilution, typically setting 9 concentrations. Control groups containing no drug medium and medium containing only the drug solvent are also set up. The diluted drugs are added to the cell culture plates seeded the previous day. The plates are incubated for 72 h.
(§3) (3) CCK8 Assay for Cell Viability: CCK8 is mixed with culture medium at a 1:10 ratio. 100 μL of this mixture is added to each well of the cell culture plate. After incubating for 2-4 h, the OD values are measured using a microplate reader.
(§4) (4) Data Analysis: Based on the corresponding OD values, the data are compiled, IC50 curves are plotted, and the IC50 values are obtained.
(§5) (5) IC50 Verification: The theoretical IC50 value is identified from the IC50 curve. Drug concentrations at ½ times, 1 time, and 2 times this theoretical value are used for verification.

[2] = tested on: PLC/PRF/5 KSR2 OE (PLC cells overexpressing KSR2); assay: Cell IC50 assay (CCK8 cell viability), PLC/PRF/5 KSR2 OE; type: cell-based; conditions: Homo sapiens, read-out: IC50 value of cell viability, PLC/PRF/5 KSR2 OE (PLC cells overexpressing KSR2)
Procedure: as §1, §2, §3, §4, §5

[3] = hepatoma cells, 72 h incubation, CCK8, read-out: IC50 value of cell viability, MHCC97H KSR2 OE (97H cells overexpressing KSR2)
[4] = PLC-PRF-5, hepatoma cells, 72 h incubation, CCK8
[5] = read-out: IC50 value of cell viability, MHCC97H KSR2 OE (97H cells overexpressing KSR2)

Row | SMILES | IC50 [1, 3] [µM] | IC50 [2, 4] [µM] | IC50 [1, 5] [µM] | IC50 ([2]; PLC-PRF-5, 72 h) [µM]
1 | CN1CCN(C2CN(C3CC(CNC(=O)c4nn(C)c5c4CSc4ccccc4-5)C3)C2)CC1 (stereo not shown) [Compound 77] | 27 | 21 | – | –
2 | CCN1CCN(C2CCN(CCCNC(=O)c3n[nH]c4c3COc3cc(C(F)(F)F)c(C#N)cc3-4)CC2)CC1 [Compound 132] | 1 | 4 | – | –
3 | CN1CCN(C2CCN(C3CC(CNC(=O)c4nn(C)c5c4CSc4ccccc4-5)C3)CC2)CC1 (stereo not shown) [Compound 78] | 6 | 12 | – | –
4 | CN1CC2CCC(C1)N2C1CCN(CCCNC(=O)c2nn(C)c3c2CSc2ccccc2-3)CC1 [Compound 74] | 8 | 10 | – | –
5 | CCN1CCN(C2CN(CCCNC(=O)c3nn(C)c4c3CSc3ccccc3-4)C2)CC1 [Compound 81] | 11 | 26 | – | –
6 | Cn1nc(C(=O)NCCCN2CCC(N3CCN(Cc4ccccc4)CC3)CC2)c2c1-c1ccccc1SC2 [Compound 58] | 2 | 2 | – | –
7 | CN1CCN(C2CN(CCCNC(=O)c3nn(C)c4c3COc3cc(OC(F)(F)F)ccc3-4)C2)CC1 [Compound 107] | 5 | 2 | – | –
8 | Cc1ccc2c(c1)OCc1c(C(=O)NCCCN3CCC(N4CCN(C)CC4)CC3)nn(C)c1-2 [Compound 120] | 10 | 8 | – | –
9 | Cn1nc(C(=O)NCCCN2CCC(N3CCC3)CC2)c2c1-c1ccccc1SC2 [Compound 47] | 4 | 2 | – | –
10 | Cn1nc(C(=O)NCCCN2CCC(N)CC2)c2c1-c1ccccc1SC2 [Compound 55] | 5 | 4 | – | –
11 | Cn1nc(C(=O)NCC(F)(F)CN2CCN(c3ccccc3)CC2)c2c1-c1ccccc1SC2 [Compound 23] | 8 | 8 | – | –
12 | CN1CCN(C2CN(CCCNC(=O)c3nn(C)c4c3COc3cc(Cl)c(C#N)cc3-4)C2)CC1 [Compound 119] | 7 | 5 | – | –
13 | Cn1nc(C(=O)NCC(F)(F)CN2CCC(N3CCCCC3)CC2)c2c1-c1ccccc1SC2 [Compound 34] | 14 | 12 | – | –
14 | Cc1ccc2c(c1)OCc1c-2nn(C)c1C(=O)NCCCN1CC(N2CCN(C)CC2)C1 [Compound 115] | 18 | 43 | – | –
15 | CN1CCCC12CN(CCCNC(=O)c1nn(C)c3c1CSc1ccccc1-3)C2 [Compound 100] | 71 | 61 | – | –
16 | Cn1nc(C(=O)NCCCN2CCC(N3CCN(CC4COC4)CC3)CC2)c2c1-c1ccccc1SC2 [Compound 70] | 9 | 39 | – | –
17 | Cn1nc(C(=O)NCCCN2CCC(c3ccccc3)CC2)c2c1-c1ccccc1SC2 [Compound 31] | 19 | 21 | – | –
18 | Cn1nc(C(=O)NCCCN2CCN(c3ccccn3)CC2)c2c1-c1ccccc1SC2 [Compound 19] | 40 | 40 | – | –
19 | CN1CCN(C2CCN(CCCNC(=O)c3c4c(nn3C)-c3ccc(-n5nccn5)cc3OC4)CC2)CC1 [Compound 124] | 5 | 2 | – | –
20 | Cn1nc(C(=O)NCCCN2CCN(c3ccc(C#N)cc3)CC2)c2c1-c1ccccc1SC2 [Compound 29] | 2 | 41 | – | –
21 | Cn1nc(C(=O)NCCCN2CCN(C3CCCCC3)CC2)c2c1-c1ccccc1SC2 [Compound 8] | – | – | 62 | 61
22 | Cn1nc(C(=O)NCCCN2CCN(C3CCOCC3)CC2)c2c1-c1ccccc1SC2 [Compound 2] | – | – | > 100 | 84
23 | CN1CCN(C2CCN(CCCNC(=O)c3nn(C)c4c3CSc3cc(Cl)ccc3-4)CC2)CC1 [Compound 96] | 1 | 4 | – | –
24 | CN1CCN(C2CCN(CCCNC(=O)c3c4c(nn3C)-c3ccc(-c5cn[nH]c5)cc3OC4)CC2)CC1 [Compound 123] | 85 | 114 | – | –
25 | CCN1CCN(C2CCN(C3CC(CNC(=O)c4nn(C)c5c4CSc4ccccc4-5)C3)CC2)CC1 (stereo not shown) [Compound 61] | 1 | 0.2 | – | –
26 | Cn1nc(C(=O)NCCCN2CCN(c3ccc(Cl)cc3)CC2)c2c1-c1ccccc1SC2 [Compound 25] | 37 | 20 | – | –
27 | Cn1nc(C(=O)NCCCN2CCN(c3cccc(Cl)c3)CC2)c2c1-c1ccccc1SC2 [Compound 24] | 39 | 18 | – | –
28 | Cn1nc(C(=O)NCCN2CCN(C3CCCCC3)CC2)c2c1-c1ccccc1SC2 [Compound 11] | – | – | 62 | 35
29 | CC(C)N1CCN(C2CN(CCCNC(=O)c3nn(C)c4c3COc3cc(Cl)ccc3-4)C2)CC1 [Compound 103] | 5 | 5 | – | –

Reference: US20260115187A1, “TRICYCLIC SKELETON COMPOUND AND USE THEREOF IN PREPARATION OF ANTITUMOR DRUG” (ZHONGSHAN HOSPITAL, FUDAN UNIVERSITY, priority 2024, published 2026)
